Assay results reported in patent US20260022142A1, “MACROCYCLIC IMMUNOMODULATORS” (Bristol-Myers Squibb Company, priority 2022, published 2026).
Bridge positions count the residues as written; N and C are the ends. Square brackets hold non-standard residues; d marks the D form. Peptide text beside a SMILES is read from it. * marks the point of attachment. ξ: configuration not given here. Phe(4-COOH) = N[C@@H](Cc1ccc(C(=O)O)cc1)C(=O)O; Bip = N[C@@H](Cc1ccc(-c2ccccc2)cc1)C(=O)O; Phe(4-CN) = N#Cc1ccc(C[C@H](N)C(=O)O)cc1; Phe(3-Me) = Cc1cccc(C[C@H](N)C(=O)O)c1; Phe(4-F) = N[C@@H](Cc1ccc(F)cc1)C(=O)O; Val(3-OH) = CC(C)(O)[C@H](N)C(=O)O; 4Pal = N[C@@H](Cc1ccncc1)C(=O)O; Cha = N[C@@H](CC1CCCCC1)C(=O)O; Thr(3ξ) = CC(O)[C@H](N)C(=O)O; dDab = NCC[C@@H](N)C(=O)O; Carboxymethyl = O=C(O)C*; Orn = NCCC[C@H](N)C(=O)O; Aun = NCCCCCCCCCCC(=O)O; Dab = NCC[C@H](N)C(=O)O; AEEA = NCCOCCOCC(=O)O

target: T1, PD-1/PD-L1 interaction (PE-labeled human PD-L1-Ig binding to Jurkat cell line over-expressing human PD-1) (Homo sapiens, UniProt Q15116); test: Jurkat-PD-1 Cell Binding High-Content Screening Assay (CBA); assay type: cell-based; details: Jurkat cell line over-expressing human PD-1; PE-labeled PD-L1-Ig 20 nM final; read-out: Jurkat hPD1-PDL1 IC50
T1 construct: expressed in transfected cells; host or cells: Jurkat
In short: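 Binding of fluorescent PD-L1-Ig (20 nM final) to Jurkat-PD-1 cells was measured by automated imaging after 1 h, following a 2 h compound pre-treatment at 37° C.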

T1 sequence (Q15116 25-288): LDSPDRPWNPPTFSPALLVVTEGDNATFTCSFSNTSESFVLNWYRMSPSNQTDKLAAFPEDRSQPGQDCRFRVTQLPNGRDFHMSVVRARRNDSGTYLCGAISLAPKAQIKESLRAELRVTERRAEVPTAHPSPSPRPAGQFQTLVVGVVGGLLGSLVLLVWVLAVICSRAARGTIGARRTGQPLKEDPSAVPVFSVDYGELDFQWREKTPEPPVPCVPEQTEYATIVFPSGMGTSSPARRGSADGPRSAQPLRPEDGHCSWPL

IC50 [nM]	SMILES
344	Cc1cccc(C[C@@H]2NC(=O)[C@H](CC(=O)O)NC(=O)[C@H](Cc3ccc(C(=O)O)cc3)NC(=O)[C@H](Cc3ccncc3)NC(=O)CSC[C@@H](C(=O)N[C@@H](CCN)C(=O)NCCOCCOCC(=O)NCCOCCOCC(=O)NCCCCCCCCCCC(=O)O)NC(=O)[C@H](CCC(=O)O)NC(=O)[C@H](C(C)C)NC(=O)[C@H](CC3CCCCC3)NC(=O)[C@H](CCN)NC(=O)[C@@H](CC(C)C)NC(=O)[C@H](CCCN)NC(=O)[C@H](Cc3ccc(C(=O)O)cc3)NC(=O)[C@H](Cc3ccc(-c4ccccc4)cc3)NC(=O)[C@H](Cc3ccc(C(=O)O)cc3)NC2=O)c1 [Compound 3765] ({CH2CO}-[4Pal][Phe(4-COOH)]D[Phe(3-Me)][Phe(4-COOH)][Bip][Phe(4-COOH)][Orn][dL][Dab][Cha]VEC[Dab][AEEA][AEEA][Aun]-OH; thioether N-14)
9.6	Cc1cccc(C[C@@H]2NC(=O)[C@H](CC(=O)O)NC(=O)[C@H](Cc3ccc(OCC(=O)O)cc3)NC(=O)[C@H](Cc3ccc(F)cc3)NC(=O)CSC[C@@H](C(=O)N[C@@H](CCN)C(=O)NCCOCCOCC(=O)NCCOCCOCC(=O)NCCCCCCCCCCC(=O)O)NC(=O)[C@H](Cc3cnc[nH]3)NC(=O)[C@H](C(C)(C)O)NC(=O)[C@H](CC3CCCCC3)NC(=O)[C@H](CCN)NC(=O)[C@@H](CC(C)C)NC(=O)[C@H](CCCN)NC(=O)[C@H](Cc3ccc(C(=O)O)cc3)NC(=O)[C@H](Cc3ccc(-c4ccccc4)cc3)NC(=O)[C@H](Cc3ccc(C(=O)O)cc3)NC2=O)c1 [Compound 3767] ({CH2CO}-[Phe(4-F)]Y(Carboxymethyl)D[Phe(3-Me)][Phe(4-COOH)][Bip][Phe(4-COOH)][Orn][dL][Dab][Cha][Val(3-OH)]HC[Dab][AEEA][AEEA][Aun]-OH; thioether N-14)
239	Cc1cccc(C[C@@H]2NC(=O)[C@H](CC(=O)O)NC(=O)[C@H](Cc3ccc(OCC(=O)O)cc3)NC(=O)[C@@H](CCN)NC(=O)CSC[C@@H](C(=O)N[C@@H](CCN)C(=O)NCCCCCCCCCCC(=O)O)NC(=O)[C@H](Cc3cnc[nH]3)NC(=O)[C@H](C(C)(C)O)NC(=O)[C@H](CC3CCCCC3)NC(=O)[C@H](CCN)NC(=O)[C@@H](CC(C)C)NC(=O)[C@H](CCCN)NC(=O)[C@H](Cc3ccc(C(=O)O)cc3)NC(=O)[C@H](Cc3ccc(-c4ccccc4)cc3)NC(=O)[C@H](Cc3ccc(C(=O)O)cc3)NC2=O)c1 [Compound 3770] ({CH2CO}-[dDab]Y(Carboxymethyl)D[Phe(3-Me)][Phe(4-COOH)][Bip][Phe(4-COOH)][Orn][dL][Dab][Cha][Val(3-OH)]HC[Dab][Aun]-OH; thioether N-14)
4.7	Cc1cccc(C[C@@H]2NC(=O)[C@H](CC(=O)O)NC(=O)[C@H](Cc3ccc(OCC(=O)O)cc3)NC(=O)[C@H](CCN)NC(=O)CSC[C@@H](C(=O)N[C@@H](CCN)C(=O)NCCOCCOCC(=O)NCCOCCOCC(=O)NCCOCCOCC(=O)NCCCCCCCCCCC(=O)O)NC(=O)[C@H](CCC(=O)O)NC(=O)[C@H](C(C)(C)O)NC(=O)[C@H](CC3CCCCC3)NC(=O)[C@H](CCN)NC(=O)[C@@H](CC(C)C)NC(=O)[C@H](CCCN)NC(=O)[C@H](Cc3ccc(OCC(=O)O)cc3)NC(=O)[C@H](Cc3ccc(-c4ccccc4)cc3)NC(=O)[C@H](Cc3ccc(OCC(=O)O)cc3)NC2=O)c1 [Compound 3771] ({CH2CO}-[Dab]Y(Carboxymethyl)D[Phe(3-Me)]Y(Carboxymethyl)[Bip]Y(Carboxymethyl)[Orn][dL][Dab][Cha][Val(3-OH)]EC[Dab][AEEA][AEEA][AEEA][Aun]-OH; thioether N-14)
2.6	Cc1cccc(C[C@@H]2NC(=O)[C@H](CC(=O)O)NC(=O)[C@H](Cc3ccc(OCC(=O)O)cc3)NC(=O)[C@H](CCN)NC(=O)CSC[C@@H](C(=O)N[C@@H](CCN)C(=O)NCCOCCOCC(=O)NCCOCCOCC(=O)NCCOCCOCC(=O)NCCCCCCCCCCC(=O)O)NC(=O)[C@H](Cc3cnc[nH]3)NC(=O)[C@H](C(C)(C)O)NC(=O)[C@H](CC3CCCCC3)NC(=O)[C@H](CCN)NC(=O)[C@@H](CC(C)C)NC(=O)[C@H](CCCN)NC(=O)[C@H](Cc3ccc(C(=O)O)cc3)NC(=O)[C@H](Cc3ccc(-c4ccccc4)cc3)NC(=O)[C@H](Cc3ccc(C(=O)O)cc3)NC2=O)c1 [Compound 3772] ({CH2CO}-[Dab]Y(Carboxymethyl)D[Phe(3-Me)][Phe(4-COOH)][Bip][Phe(4-COOH)][Orn][dL][Dab][Cha][Val(3-OH)]HC[Dab][AEEA][AEEA][AEEA][Aun]-OH; thioether N-14)
6.3	Cc1cccc(C[C@@H]2NC(=O)[C@H](CC(=O)O)NC(=O)[C@H](Cc3ccc(C#N)cc3)NC(=O)[C@H](C(C)O)NC(=O)CSC[C@@H](C(=O)N[C@@H](CCN)C(=O)NCCOCCOCC(=O)NCCOCCOCC(=O)NCCCCCCCCCCC(=O)O)NC(=O)[C@H](Cc3cnc[nH]3)NC(=O)[C@H](C(C)O)NC(=O)[C@H](CC3CCCCC3)NC(=O)[C@H](CCN)NC(=O)[C@@H](CC(C)C)NC(=O)[C@H](CCCN)NC(=O)[C@H](Cc3ccc(OCC(=O)O)cc3)NC(=O)[C@H](Cc3ccc(-c4ccccc4)cc3)NC(=O)[C@H](Cc3ccc(OCC(=O)O)cc3)NC2=O)c1 (stereo partly drawn) [Compound 3774] ({CH2CO}-[Thr(3ξ)][Phe(4-CN)]D[Phe(3-Me)]Y(Carboxymethyl)[Bip]Y(Carboxymethyl)[Orn][dL][Dab][Cha][Thr(3ξ)]HC[Dab][AEEA][AEEA][Aun]-OH; thioether N-14)

Second part, the molecule before the results:

SMILES	IC50 [nM]
Cc1cccc(C[C@@H]2NC(=O)[C@H](CC(=O)O)NC(=O)[C@H](Cc3ccc(OCC(=O)O)cc3)NC(=O)[C@H](Cc3ccncc3)NC(=O)CSC[C@@H](C(=O)N[C@@H](CCN)C(=O)NCCOCCOCC(=O)NCCOCCOCC(=O)NCCCCCCCCCCC(=O)O)NC(=O)[C@H](Cc3cnc[nH]3)NC(=O)[C@H](C(C)C)NC(=O)[C@H](CC3CCCCC3)NC(=O)[C@H](CCN)NC(=O)[C@@H](CC(C)C)NC(=O)[C@H](CCCN)NC(=O)[C@H](Cc3ccc(C(=O)O)cc3)NC(=O)[C@H](Cc3ccc(-c4ccccc4)cc3)NC(=O)[C@H](Cc3ccc(C(=O)O)cc3)NC2=O)c1 [Compound 3766] ({CH2CO}-[4Pal]Y(Carboxymethyl)D[Phe(3-Me)][Phe(4-COOH)][Bip][Phe(4-COOH)][Orn][dL][Dab][Cha]VHC[Dab][AEEA][AEEA][Aun]-OH; thioether N-14)	31.2
Cc1cccc(C[C@@H]2NC(=O)[C@H](CC(=O)O)NC(=O)[C@H](Cc3ccc(OCC(=O)O)cc3)NC(=O)[C@H](Cc3ccc(F)cc3)NC(=O)CSC[C@@H](C(=O)N[C@@H](CCN)C(=O)NCCOCCOCC(=O)NCCOCCOCC(=O)NCCCCCCCCCCC(=O)O)NC(=O)[C@H](CCC(=O)O)NC(=O)[C@H](C(C)(C)O)NC(=O)[C@H](CC3CCCCC3)NC(=O)[C@H](CCN)NC(=O)[C@@H](CC(C)C)NC(=O)[C@H](CCCN)NC(=O)[C@H](Cc3ccc(C(=O)O)cc3)NC(=O)[C@H](Cc3ccc(-c4ccccc4)cc3)NC(=O)[C@H](Cc3ccc(C(=O)O)cc3)NC2=O)c1 [Compound 3768] ({CH2CO}-[Phe(4-F)]Y(Carboxymethyl)D[Phe(3-Me)][Phe(4-COOH)][Bip][Phe(4-COOH)][Orn][dL][Dab][Cha][Val(3-OH)]EC[Dab][AEEA][AEEA][Aun]-OH; thioether N-14)	6.5
Cc1cccc(C[C@@H]2NC(=O)[C@H](CC(=O)O)NC(=O)[C@H](Cc3ccc(OCC(=O)O)cc3)NC(=O)[C@H](C)NC(=O)CSC[C@@H](C(=O)N[C@@H](CCN)C(=O)NCCOCCOCC(=O)NCCCCCCCCCCC(=O)O)NC(=O)[C@H](CO)NC(=O)[C@H](C(C)(C)O)NC(=O)[C@H](CC3CCCCC3)NC(=O)[C@H](CCN)NC(=O)[C@@H](CC(C)C)NC(=O)[C@H](CCCN)NC(=O)[C@H](Cc3ccc(C(=O)O)cc3)NC(=O)[C@H](Cc3ccc(-c4ccccc4)cc3)NC(=O)[C@H](Cc3ccc(C(=O)O)cc3)NC2=O)c1 [Compound 3769] ({CH2CO}-AY(Carboxymethyl)D[Phe(3-Me)][Phe(4-COOH)][Bip][Phe(4-COOH)][Orn][dL][Dab][Cha][Val(3-OH)]SC[Dab][AEEA][Aun]-OH; thioether N-14)	3.5
Cc1cccc(C[C@@H]2NC(=O)[C@H](CC(=O)O)NC(=O)[C@H](Cc3ccc(C#N)cc3)NC(=O)[C@H](C(C)O)NC(=O)CSC[C@@H](C(=O)N[C@@H](CCN)C(=O)NCCOCCOCC(=O)NCCOCCOCC(=O)NCCCCCCCCCCC(=O)O)NC(=O)[C@H](Cc3cnc[nH]3)NC(=O)[C@H](C(C)(C)O)NC(=O)[C@H](CC3CCCCC3)NC(=O)[C@H](CCN)NC(=O)[C@@H](CC(C)C)NC(=O)[C@H](CCCN)NC(=O)[C@H](Cc3ccc(OCC(=O)O)cc3)NC(=O)[C@H](Cc3ccc(-c4ccccc4)cc3)NC(=O)[C@H](Cc3ccc(OCC(=O)O)cc3)NC2=O)c1 (stereo partly drawn) [Compound 3773] ({CH2CO}-[Thr(3ξ)][Phe(4-CN)]D[Phe(3-Me)]Y(Carboxymethyl)[Bip]Y(Carboxymethyl)[Orn][dL][Dab][Cha][Val(3-OH)]HC[Dab][AEEA][AEEA][Aun]-OH; thioether N-14)	1
Cc1cccc(C[C@@H]2NC(=O)[C@H](CC(=O)O)NC(=O)[C@H](Cc3ccc(C(=O)O)cc3)NC(=O)[C@H](C(C)O)NC(=O)CSC[C@@H](C(=O)N[C@@H](CCN)C(=O)NCCOCCOCC(=O)NCCOCCOCC(=O)NCCCCCCCCCCC(=O)O)NC(=O)[C@H](CO)NC(=O)[C@H](C(C)O)NC(=O)[C@H](CC3CCCCC3)NC(=O)[C@H](CCN)NC(=O)[C@@H](CC(C)C)NC(=O)[C@H](CCCN)NC(=O)[C@H](Cc3ccc(C(=O)O)cc3)NC(=O)[C@H](Cc3ccc(-c4ccccc4)cc3)NC(=O)[C@H](Cc3ccc(C(=O)O)cc3)NC2=O)c1 (stereo partly drawn) [Compound 3775] ({CH2CO}-[Thr(3ξ)][Phe(4-COOH)]D[Phe(3-Me)][Phe(4-COOH)][Bip][Phe(4-COOH)][Orn][dL][Dab][Cha][Thr(3ξ)]SC[Dab][AEEA][AEEA][Aun]-OH; thioether N-14)	5.8
